These results are taken from patent publication US20260070924A1, “INDAZOLE MACROCYCLES AND THEIR USE” (BLOSSOMHILL THERAPEUTICS, INC., priority 2022, published 2026).

The target of one test is phospho-FLT3 (Y589/Y591) (Homo sapiens, UniProt P36888, INS600FREYEYD). Put plainly: Inhibition of kinase phosphorylation by Western Blot in MOLM-13. Type of test: cell-based. The following applies: MOLM-13 cells, 4 hour-incubation; read-out: pFLT3 MOLM-13 IC50. Background: A western blot detects proteins with antibodies after separation by electrophoresis.
Chain of phospho-FLT3 (Y589/Y591) (P36888 with tags, fused parts or gaps INS600FREYEYD limits assumed): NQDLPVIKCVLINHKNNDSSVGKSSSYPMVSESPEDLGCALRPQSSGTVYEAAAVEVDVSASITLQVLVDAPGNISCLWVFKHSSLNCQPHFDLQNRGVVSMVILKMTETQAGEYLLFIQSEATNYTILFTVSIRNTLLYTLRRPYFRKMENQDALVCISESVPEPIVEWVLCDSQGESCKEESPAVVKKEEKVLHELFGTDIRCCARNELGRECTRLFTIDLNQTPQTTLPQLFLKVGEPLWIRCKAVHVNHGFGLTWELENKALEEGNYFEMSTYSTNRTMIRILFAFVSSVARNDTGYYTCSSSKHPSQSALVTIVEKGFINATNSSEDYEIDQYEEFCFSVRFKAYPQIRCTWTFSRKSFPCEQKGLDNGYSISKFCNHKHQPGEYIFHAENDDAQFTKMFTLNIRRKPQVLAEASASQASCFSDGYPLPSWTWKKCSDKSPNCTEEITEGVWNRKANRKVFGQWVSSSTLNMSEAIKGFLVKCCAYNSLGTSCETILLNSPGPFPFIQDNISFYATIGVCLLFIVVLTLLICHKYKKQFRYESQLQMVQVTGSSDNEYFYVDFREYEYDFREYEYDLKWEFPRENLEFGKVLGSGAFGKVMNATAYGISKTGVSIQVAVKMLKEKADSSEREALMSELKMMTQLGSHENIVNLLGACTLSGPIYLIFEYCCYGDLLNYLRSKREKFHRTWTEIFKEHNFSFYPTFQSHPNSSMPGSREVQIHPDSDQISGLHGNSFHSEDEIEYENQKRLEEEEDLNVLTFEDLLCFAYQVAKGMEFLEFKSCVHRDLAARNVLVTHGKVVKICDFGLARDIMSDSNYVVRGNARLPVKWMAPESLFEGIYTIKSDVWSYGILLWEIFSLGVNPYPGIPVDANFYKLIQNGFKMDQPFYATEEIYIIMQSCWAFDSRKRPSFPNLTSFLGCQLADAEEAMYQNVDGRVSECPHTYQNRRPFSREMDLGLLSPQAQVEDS
Test [1] concerns S6K (PRS6KB1) exon6-8/exon 6-7. Put plainly: Alternative splicing ratio by qPCR in MOLM-13. Type of test: cell-based. The following applies: DMSO = 1.02. The procedure: Alternative splicing ratio of RNA transcripts was measured by qPCR in MV-4-11 and MOLM-13 cell lines. Cells were plated in 24 well plates at 1 million cells per well and then treated with compounds at different concentrations, with DMSO only as control. After 8-hour-incubation, cells were harvested and washed once with ice-cold PBS, and lysed in RNA lysis buffer (Invitrogen). Total RNA was extracted using the RNA Purification Kit (Invitrogen). 2 μg of RNA was used for cDNA synthesis using cDNA synthesis kit (ThermoFisher) and 20 ng of cDNA was used for qPCR using PROFLEX 96-Well PCR System (ThermoFisher).

The target of a further test is CLK2 (Homo sapiens (Human), UniProt P49760). In words: CLK kinase activity assay (ADP-Glo). Type of test: biochemical. The procedure:
(§1) Kinase protein and substrate were pre-diluted in the HEPES assay buffer (100 mM HEPES, pH 7.5, 0.01% Triton X-100, 0.1% BSA, 5 mM MgCl2, 1 mM DTT, 10 μM Sodium Orthovanadate, 10 μM Beta-Glycerophosphate) dispensed into 384 well plate (5 μL per well). Control samples (0%-inhibition in the absence of inhibitor, DMSO only) and 100%-inhibition (in the absence of enzyme) were assembled in replicates of six and were used to calculate %-inhibition in the presence of compounds. Test compounds were added to the protein samples by acoustic dispensing (Labcyte Echo550). Concentration of DMSO was equalized to 1% in all samples. Reactions were initiated by addition of ATP by acoustic dispensing (Labcyte Echo550) and incubated according to assay specific incubation time. After incubation, 5 uL of Promega ADP-Glo reagent was added and incubated for 40 minutes. After 40 minutes, 10 uL of Promega kinase detection reagent was added. After 10 min of incubation with Kinase detection reagent, the luminescence was read on microplate reader (Biotek Synergy).
(ADP-Glo turns the ADP formed in a reaction into a luminescent signal.)

The next test addresses CLK3 (Homo sapiens (Human), UniProt P49761). Put plainly: CLK kinase activity assay (ADP-Glo). Type of test: biochemical. As to the method:
as §1

A further test addresses CLK4 (Homo sapiens (Human), UniProt Q9HAZ1). In words: CLK kinase activity assay (ADP-Glo). Type of test: biochemical. As to the method:
as §1

A further test has as its target CLK1 (Homo sapiens (Human), UniProt P49759). In words: CLK kinase activity assay (ADP-Glo). The test is classed as biochemical. The procedure:
as §1

Another test relates to H727. In words: Cell proliferation panel (CellTiter-Glo 2.0, 5 days). As to conditions: Bronchial lung carcinoid. Type of test: cell-based. As to the method:
(§2) Cell proliferation assay was carried out in a panel of 108 cell lines. 1000 (attached cells) or 3000 (suspension cells) cells/100 μl per well were seeded in 96 well black plate with a clear bottom (Corning #3904). Compounds were added using Tecan D300e Digital Dispenser in 1:3 titration for 9 doses. Plates were incubated for 5 days at 37° C. and 5% CO2. Cell proliferation was measured using CellTiter-Glo 2.0 luciferase-based ATP detection assay (Promega, Madison, WI) at 50 μl per well following the manufacturer's protocol. Plates were then read on a TECAN Sparks multimode microplate reader. Data was analyzed using GraphPad Prism 9 (GraphPad Software, San Diego, CA) to obtain IC50 values. IC50 values were determined using Prism software (GraphPad Software, San Diego, CA).
A general note: ATP-based viability assays read luminescence as a measure of living cells.

A further test relates to KATOIII. The test is described as above. Type of test: cell-based. The following applies: Gastric carcinoma. As to the method: as §2
A further test concerns MFM-223. Described as above. Type of test: cell-based. As to conditions: Breast carcinoma. The procedure:
as §2

Another test has as its system LS180. Described as above. The following applies: Colorectal adenocarcinoma. Type of test: cell-based. As to the method: as §2
The subject of another test is JeKo-1. The test is described as above. Type of test: cell-based. As to conditions: Mantle cell lymphoma. The procedure:
as §2

The subject of another test is DLD1. The test is described as above. Type of test: cell-based. The following applies: Colorectal adenocarcinoma. The procedure:
as §2

The subject of another test is 769-P. The test is described as above. The test is classed as cell-based. The following applies: Renal cell adenocarcinoma. The procedure:
as §2

A further test deals with H2444. Described as above. Type of test: cell-based. As to conditions: Lung adenocarcinoma NSCLC. The procedure:
as §2

In a further test the test system is LS513. The test is described as above. Type of test: cell-based. The following applies: Colorectal carcinoma. The procedure: as §2
The next test relates to H1930. The description is as above. Type of test: cell-based. As to conditions: Lung carcinoma small cell lung cancer. As to the method:
as §2

For a further test, the system named is EOL-1. The test is described as above. Type of test: cell-based. The following applies: Chronic eosinophilic leukemia. The procedure:
as §2

The test system of another test is U87 MG. The description is as above. The test is classed as cell-based. As to conditions: Glioblastoma. The procedure: as §2

Chain of CLK3 (P49761 whole entry): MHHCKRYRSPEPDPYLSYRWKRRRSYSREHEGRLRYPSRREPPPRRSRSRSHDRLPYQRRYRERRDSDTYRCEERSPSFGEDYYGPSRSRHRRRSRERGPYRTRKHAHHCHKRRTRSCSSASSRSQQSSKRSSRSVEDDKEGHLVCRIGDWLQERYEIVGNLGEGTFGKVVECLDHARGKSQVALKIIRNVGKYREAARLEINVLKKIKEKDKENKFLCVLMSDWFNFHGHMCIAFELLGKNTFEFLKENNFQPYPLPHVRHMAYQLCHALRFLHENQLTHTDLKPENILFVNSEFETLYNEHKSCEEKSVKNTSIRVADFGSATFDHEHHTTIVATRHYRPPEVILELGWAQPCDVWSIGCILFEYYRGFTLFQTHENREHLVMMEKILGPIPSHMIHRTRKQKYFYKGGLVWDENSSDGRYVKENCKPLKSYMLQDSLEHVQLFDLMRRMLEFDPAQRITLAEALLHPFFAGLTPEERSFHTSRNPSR
Chain of CLK2 (P49760 whole entry): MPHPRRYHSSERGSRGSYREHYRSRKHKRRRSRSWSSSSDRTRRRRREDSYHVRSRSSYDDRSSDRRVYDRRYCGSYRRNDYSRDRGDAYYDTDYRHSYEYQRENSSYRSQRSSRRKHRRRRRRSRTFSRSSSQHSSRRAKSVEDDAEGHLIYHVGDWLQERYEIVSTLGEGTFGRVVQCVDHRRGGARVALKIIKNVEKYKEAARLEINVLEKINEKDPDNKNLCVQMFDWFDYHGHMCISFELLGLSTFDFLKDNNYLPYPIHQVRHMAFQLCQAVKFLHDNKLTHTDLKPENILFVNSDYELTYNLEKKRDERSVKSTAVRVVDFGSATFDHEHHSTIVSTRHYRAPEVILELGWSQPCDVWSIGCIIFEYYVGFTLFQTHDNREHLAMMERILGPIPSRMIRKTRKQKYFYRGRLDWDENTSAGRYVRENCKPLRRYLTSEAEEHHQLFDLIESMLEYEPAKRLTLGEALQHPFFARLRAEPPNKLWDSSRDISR
Chain of CLK1 (P49759 whole entry): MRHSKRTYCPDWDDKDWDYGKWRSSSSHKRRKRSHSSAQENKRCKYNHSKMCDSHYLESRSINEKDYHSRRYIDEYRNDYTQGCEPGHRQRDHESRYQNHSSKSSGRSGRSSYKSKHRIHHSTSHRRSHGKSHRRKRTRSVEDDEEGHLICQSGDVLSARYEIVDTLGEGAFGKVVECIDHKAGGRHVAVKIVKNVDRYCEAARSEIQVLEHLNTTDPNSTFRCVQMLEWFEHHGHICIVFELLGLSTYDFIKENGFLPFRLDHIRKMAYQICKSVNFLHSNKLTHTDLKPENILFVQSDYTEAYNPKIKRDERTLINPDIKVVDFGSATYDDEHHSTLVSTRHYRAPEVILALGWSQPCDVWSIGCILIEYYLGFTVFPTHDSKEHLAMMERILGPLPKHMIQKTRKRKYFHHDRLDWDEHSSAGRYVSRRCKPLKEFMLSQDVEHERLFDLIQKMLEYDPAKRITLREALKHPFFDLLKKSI
Chain of CLK4 (Q9HAZ1 whole entry): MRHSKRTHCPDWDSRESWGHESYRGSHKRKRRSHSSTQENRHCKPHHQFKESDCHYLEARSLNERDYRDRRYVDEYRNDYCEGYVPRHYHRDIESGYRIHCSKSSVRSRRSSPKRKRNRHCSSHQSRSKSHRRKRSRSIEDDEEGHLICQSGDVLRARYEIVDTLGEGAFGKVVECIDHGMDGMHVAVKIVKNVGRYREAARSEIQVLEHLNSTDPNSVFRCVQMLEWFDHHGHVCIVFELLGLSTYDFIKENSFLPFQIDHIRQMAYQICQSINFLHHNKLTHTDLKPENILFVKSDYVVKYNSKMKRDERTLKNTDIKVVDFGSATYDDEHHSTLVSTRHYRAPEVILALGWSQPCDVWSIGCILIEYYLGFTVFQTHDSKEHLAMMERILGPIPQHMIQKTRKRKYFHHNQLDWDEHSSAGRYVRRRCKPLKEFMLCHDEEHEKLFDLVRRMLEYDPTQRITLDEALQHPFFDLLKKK

Usually IC50 stands for the midpoint of a concentration-inhibition curve. For `CCc1nn(C)c2c1/C=C/c1n[nH]c3ccc(cc13)-c1cnn(C)c1OCCN(C)C2=O` [Ex. 6, (17E)-16-ethyl-8,12,14-trimethyl-2,11,12,14-tetrahydro-8H-3,5-ethenotripyrazolo[3,4-f:3′,4′-j:4″,3″-n][1,4]oxazacyclopentadecin-13(10H)-one], the IC50 stood at 0.32 nM at phospho-FLT3 (Y589/Y591); 0.165 nM at CLK2; 5.87 nM on CLK3; 0.446 nM on CLK4; 0.134 nM on CLK1; 100 nM in the test on H727. Further, the IC50 came out at 158 nM in the test on KATOIII; 36.8 nM in the test on MFM-223; 82.7 nM in the test on LS180; 20.6 nM in the test with JeKo-1; 48.7 nM in the test with DLD1; 91.6 nM in the test on 769-P. Moreover, the IC50 amounted to 117 nM with H2444; 30.1 nM with LS513; 181 nM in the test with H1930; 18.9 nM in the test on EOL-1; 89.2 nM in the test on U87 MG. The “Alternative Splicing Ratio S6K Ex. 6-8/Ex. 6-7” value in test [1] (MOLM-13, 30 nM) is 1.60; in test [1] (MOLM-13, 100 nM) it was 2.71; in test [1] (MOLM-13, 300 nM) it was 8.08.
